According to patent US20160045505A1, “COMPOUNDS AND COMPOSITIONS FOR THE TREATMENT OF PARASITIC DISEASES” (NOVARTIS AG, priority 2013, published 2016):
Read-outs that look alike come from different tables or passages of the source.

Key:
[1] = tested on: Leishmania donovani axenic amastigote parasites; assay: Leishmania donovani axenic amastigote proliferation assay (Cell TiterGlo luminescence, 2 day incubation); format: cell-based; conditions: axenic amastigotes, inhibition of proliferation, read-out: L. donovani amastigotes EC50
[2] = tested on: Trypanosoma brucei Lister 427 strain, bloodstream form; assay: Assay for proliferation of kinetoplastid parasite Trypanosoma brucei (Cell Titer Glo, 48 hours); format: cell-based; conditions: T. brucei Lister 427 bloodstream form, inhibition of proliferation, read-out: T. brucei EC50
Description: Assay for Proliferation of Kinetoplastid Parasite Trypanosoma brucei.
The proliferation is quantified by the addition of Cell Titer Glo (Promega®) a luminescent cell viability assay that measures the number of viable cells in culture based on the quantification of cellular ATP amount, which is an indicator of metabolically active cells.
The following assay illustrates the invention without in any way limiting the scope of the invention. This parasite proliferation assay measures the increase in parasite growth using an assay that measures ATP activity, Cell Titer Glo®.
Trypanosoma brucei Lister 427 strain is grown in HMI-9 Trypanosome media for T. brucei bloodstream form. 30 μl of HMI-9 media is dispensed into 384 well assay plates. 200 nl of compounds of the invention (in DMSO), including anti-trypanosome controls (Pentamidine and suramin), are then transferred into the assay plates, as well as DMSO alone to serve as a negative control for inhibition. Then 25 μl of a suspension of T. brucei culture in HMI-9 media is dispensed into the assay plates. The final concentration of parasites in culture corresponds to 1.7% of 0.5 uM ATP activity with Cell Titer Glo® in HMI-9 media. The plates are placed in a 37° C. incubator for 48 hours in an atmospheric environment containing 5% CO2. 40 μl of Cell Titer Glo® is dispensed into the plates. The plates are then read for luminescence. The percentage inhibition of 50%, EC50, is calculated for each compound.

[3] = tested on: L. donovani HU3 strain in mouse peritoneal macrophages; assay: Assay for proliferation of Leishmania parasites in infected mouse peritoneal macrophages (SybrGreen staining, high-content imaging, 5 days); format: cell-based, Leishmania donovani; conditions: L. donovani in mouse peritoneal macrophages, inhibition of proliferation, read-out: L. donovani Macrophage EC50
[4] = Leishmania donovani, Peritoneal macrophage

CC(C)OC(=O)Nc1cnc2nc(-c3cccc(NC(=O)N(C)C)c3)cn2c1 [Compound 20]
EC50 ([1]; Leishmania donovani): 13400 nM
EC50 ([2]; Trypanosoma brucei): 2000 nM
EC50 [3, 4]: 7900 nM

CC(C)OC(=O)Nc1cccc(-c2cn3cc(NC(=O)OC(C)C)cnc3n2)c1 [Compound 21]
EC50 ([1]; Leishmania donovani): 1970 nM
EC50 ([2]; Trypanosoma brucei): 187 nM
EC50 [3, 4]: 1050 nM

Cc1nc(C)c(C(=O)Nc2cccc(-c3cn4cc(NC(=O)OC(C)C)cnc4n3)c2)o1 [Compound 22]
EC50 ([1]; Leishmania donovani): 1240 nM
EC50 ([2]; Trypanosoma brucei): 384 nM
EC50 [3, 4]: 530 nM

COC(=O)Nc1ccc(-c2cnc3nc(-c4cc(NC(=O)N5CCCC5)ccc4Cl)cn3c2)cc1 [Compound 24, methyl (4-(2-(2-chloro-5-(pyrrolidine-1-carboxamido)phenyl)imidazo[1,2-a]pyrimidin-6-yl)phenyl)carbamate]
EC50 ([1]; Leishmania donovani): 19.9 nM
EC50 ([2]; Trypanosoma brucei): 8.45 nM
EC50 [3, 4]: 57 nM

O=C(Nc1ccc(Cl)c(-c2cn3cc(-c4ccc(F)cc4)cnc3n2)c1)N1CCCC1 [Compound 25]
EC50 ([1]; Leishmania donovani): 54 nM
EC50 ([2]; Trypanosoma brucei): 27.5 nM
EC50 [3, 4]: 100 nM

CNc1ccc(-c2cnc3nc(-c4cc(NC(=O)N5CCCC5)ccc4Cl)cn3c2)cc1 [Compound 26, N-(4-chloro-3-(6-(4-(methylamino)phenyl)imidazo[1,2-a]pyrimidin-2-yl)phenyl)pyrrolidine-1-carboxamide]
EC50 ([1]; Leishmania donovani): 57 nM
EC50 ([2]; Trypanosoma brucei): 23.3 nM
EC50 [3, 4]: 104 nM

COC(=O)Nc1ccc(-c2cnc3nc(-c4cc(NC(=O)c5ccc(C)o5)ccc4Cl)cn3c2)cc1 [Compound 27, methyl (4-(2-(2-chloro-5-(5-methylfuran-2-carboxamido)phenyl)imidazo[1,2-a]pyrimidin-6-yl)phenyl)carbamate]
EC50 ([1]; Leishmania donovani): 35 nM
EC50 ([2]; Trypanosoma brucei): 589 nM
EC50 [3, 4]: 110 nM

O=C(Nc1ccc(Cl)c(-c2cn3cc(-c4ccsc4)cnc3n2)c1)N1CCCC1 [Compound 28]
EC50 ([1]; Leishmania donovani): 28 nM
EC50 ([2]; Trypanosoma brucei): 9.36 nM
EC50 [3, 4]: 129 nM

Cc1ccc(C(=O)Nc2ccc(Cl)c(-c3cn4cc(-c5ccsc5)cnc4n3)c2)o1 [Compound 30]
EC50 ([1]; Leishmania donovani): 101 nM
EC50 ([2]; Trypanosoma brucei): 86.8 nM
EC50 [3, 4]: 172 nM

Cc1ccc(C(=O)Nc2ccc(Cl)c(-c3cn4cc(-c5ccccc5)cnc4n3)c2)o1 [Compound 31, N-(4-chloro-3-(6-phenylimidazo[1,2-a]pyrimidin-2-yl)phenyl)-5-methylfuran-2-carboxamide]
EC50 ([1]; Leishmania donovani): 169 nM
EC50 ([2]; Trypanosoma brucei): 67.7 nM
EC50 [3, 4]: 243 nM

COCCOC(=O)Nc1ccc(Cl)c(-c2cn3cc(-c4ccc(NC(=O)OC)cc4)cnc3n2)c1 [Compound 32, 2-methoxyethyl N-[4-chloro-3-(6-{4-[(methoxycarbonyl)amino]phenyl}imidazo[1,2-a]pyrimidin-2-yl)phenyl]carbamate]
EC50 ([1]; Leishmania donovani): 118 nM
EC50 ([2]; Trypanosoma brucei): 186 nM
EC50 [3, 4]: 330 nM

CNc1ccc(-c2cnc3nc(-c4cc(NC(=O)c5ccc(C)o5)ccc4Cl)cn3c2)cc1 [Compound 33, N-(4-chloro-3-(6-(4-(methylamino)phenyl)imidazo[1,2-a]pyrimidin-2-yl)phenyl)-5-methylfuran-2-carboxamide]
EC50 ([1]; Leishmania donovani): 370 nM
EC50 ([2]; Trypanosoma brucei): 188 nM
EC50 [3, 4]: 660 nM

COCCOC(=O)Nc1ccc(Cl)c(-c2cn3cc(-c4ccsc4)cnc3n2)c1 [Compound 34]
EC50 ([1]; Leishmania donovani): 258 nM
EC50 ([2]; Trypanosoma brucei): 492 nM
EC50 [3, 4]: 750 nM

COCCOC(=O)Nc1ccc(Cl)c(-c2cn3cc(-c4ccccc4)cnc3n2)c1 [Compound 35]
EC50 ([1]; Leishmania donovani): 730 nM
EC50 ([2]; Trypanosoma brucei): 1120 nM
EC50 [3, 4]: 870 nM

CCOC(=O)Nc1ccc(Cl)c(-c2cn3cc(-c4ccc(NC)cc4)cnc3n2)c1 [Compound 37]
EC50 ([1]; Leishmania donovani): 610 nM
EC50 ([2]; Trypanosoma brucei): 197 nM
EC50 [3, 4]: 3010 nM

O=C(Nc1ccc(Cl)c(-c2cn3cc(Cl)cnc3n2)c1)c1ccco1 [Compound 38]
EC50 ([1]; Leishmania donovani): 5900 nM
EC50 ([2]; Trypanosoma brucei): 1800 nM
EC50 [3, 4]: 15600 nM

O=C(Nc1ccc(Cl)c(-c2nc3ncc(-c4ccccc4)cn3c2F)c1)N1CCCC1 [Compound 39]
EC50 ([1]; Leishmania donovani): > 3400 nM
EC50 ([2]; Trypanosoma brucei): 74.5 nM
EC50 [3, 4]: 180 nM

CC(C)OC(=O)Nc1cnc2nc(-c3cc(NC(=O)c4cncn4C)ccc3F)cn2c1 [Compound 96]
EC50 ([1]; Leishmania donovani): > 15800 nM
EC50 ([2]; Trypanosoma brucei): 1480 nM
EC50 [3, 4]: 42200 nM

CON(C)C(=O)Nc1cccc(-c2cn3cc(NC(=O)OC(C)C)cnc3n2)c1 [Compound 215]
EC50 [1]: 533 nM
EC50 [2]: 181 nM
EC50 [3]: 1320 nM
